Assays:
[1] = mRNA encapsulation efficiency, Quant-iT RiboGreen RNA Assay; assay type: physicochemical; conditions: Example 5 LNP lipid:DOPE:Plant Cholesterol:DMPE-PEG2k 35:16:46.5:2.5, FLUC/EPO 1:1 mRNA, N:P 6:1
Text: All other compositions (i.e., compositions of MC3 (a commercially available ionizable lipid having a chemical name of (6Z,9Z,28Z,31Z)-heptatriacont-6,9,28,31-tetraene-19-yl 4-(dimethylamino)butanoate, and compositions of novel ionizable lipids 7669, 7671, 7668, 767, 7650) are composed of ionizable lipid:structural lipid:sterol:PEG-lipid (SDA lipid #:DSPC:cholesterol:14:0 PEG2000 PE) at a molar ratio of […], respectively. Lipids are solubilized in ethanol. Compositions are then handled as above, except the formulations are maintained at ionizable lipid to mRNA N:P ratio of 6:1. The lipid mix and mRNA solution are mixed at a 1:3 ratio by volume, respectively, on a NanoAssemblr Ignite (Precision Nanosystems) at a total flow rate of 9 mL/min. Resulting compositions are then loaded into Slide-A-Lyzer G2 dialysis cassettes (10 k MWCO) and dialyzed in 200 times sample volume of 1×PBS for 4 hrs at room temp with gentle stirring. The PBS is refreshed, and the compositions are further dialyzed for at least 14 hrs at 4° C. with gentle stirring. The dialyzed compositions are then collected and concentrated by centrifugation at 2000×g using Amicon Ultra centrifugation filters (100 k MWCO). Concentrated particles are characterized for size, polydispersity, and particle concentration using Zetasizer Ultra (Malvern Panalytical) and for mRNA encapsulation efficiency using Quant-iT RiboGreen RNA Assay Kit (ThermoFisher Scientific).
The lipid mix and mRNA solution were mixed at a 1:3 ratio by volume, respectively, on the NanoAssemblr Ignite (Precision Nanosystems) at a total flow rate of 9 mL/min. Resulting formulations were then loaded into Slide-A-Lyzer G2 dialysis cassettes (10 k MWCO) and dialyzed in 200 times sample volume of 1×PBS for 2 hrs at room temperature. The PBS was refreshed, and the formulations were further dialyzed for at least 14 hrs at 4° C. with gentle stirring. The dialyzed formulations were then collected and concentrated by centrifugation at 3000×g using Amicon Ultra centrifugation filters (100 k MWCO). The concentrated formulations were characterized for size, polydispersity, and particle concentration using Zetasizer Ultra (Malvern Panalytical) and for mRNA encapsulation efficiency using Quant-iT RiboGreen RNA Assay Kit (ThermoFisher Scientific).
For each LNP composition, the lipid mix and mRNA solution were mixed at a 1:3 ratio by volume, respectively, on a NanoAssemblr Ignite (Precision Nanosystems) at a total flow rate of 9 mL/min. The resulting compositions were then loaded into Slide-A-Lyzer G2 dialysis cassettes (10 k MWCO) and dialyzed in 200 times sample volume of 1×PBS for 2 hours at room temperature with gentle stirring. The PBS was refreshed, and the compositions were further dialyzed for at least 14 hours at 4° C. with gentle stirring. The dialyzed compositions were then collected and concentrated by centrifugation at 3000×g using Amicon Ultra centrifugation filters (100 k MWCO). The concentrated particles were characterized for size, polydispersity, and particle concentration using Zetasizer Ultra (Malvern Panalytical) and for mRNA encapsulation efficiency using Quant-iT RiboGreen RNA Assay Kit (ThermoFisher Scientific).

Balb/c mice [2] = assay: In-vivo bioluminescent imaging after IV injection of Fluc mRNA LNP; conditions: Example 5 LNP (DOPE 35:16:46.5:2.5), IV, 5 μg FLUC + 5 μg EPO; for Bioluminescence (IV) Liver / Bioluminescence (IV) Lung / Bioluminescence (IV) Spleen / Bioluminescence (IV) Whole Body: 4-6 hours post-dose; for Spleen: Liver Ratio: ratio of bioluminescence
Experimental: (§1) 8-9 week old female Balb/c mice are utilized for bioluminescence-based ionizable lipid screening efforts. Mice are obtained from Jackson Laboratories (JAX Stock: 000651) and allowed to acclimate for one week prior to manipulations. Animals are placed under a heat lamp for a few minutes before introducing them to a restraining chamber. The tail is wiped with alcohol pads (Fisher Scientific) and 100 μL of a lipid nanoparticle composition descrbed above containing 10 ug total mRNA (5 ug Fluc+5 ug EPO) is injected intravenously using a 29 G insulin syringe (Covidien). Any resulting bleeding is stemmed using a sterile gauze pad (Fisher Scientific) and animals are placed back into their home cage. 4-6 hours post-dose, animals are injected with 200 μL of 15 mg/mL D-Luciferin (GoldBio) and placed in an isoflurane induction chamber set to deliver 2.5% isoflurane delivered at an oxygen flow rate of 1-2 liters per min. After 5 minutes of isoflurane exposure, mice are placed in set nose cones inside the IVIS Lumina LT imager (PerkinElmer). LivingImage software is utilized for imaging. Whole body bio-luminescence is captured at auto-exposure after which animals are removed from the IVIS and placed into a CO2 chamber for euthanasia. Cardiac puncture is performed on each animal after placing it in dorsal recumbency, and blood collection is performed using a 25 G insulin syringe (BD). Blood is collected in Lithium-Heparin coated tubes (Fisher Scientific) and immediately placed on ice. Once all blood samples are collected, tubes are spun at 2000 G for 10 minutes using a tabletop centrifuge and plasma is aliquoted into individual Eppendorf tubes (Fisher Scientific) and stored at −80 C for subsequent EPO quantification. EPO levels in plasma are determined using EPO MSD kit (Meso Scale Diagnostics).
(§2) 8-9 week old female Balb/c mice were utilized for bioluminescence-based ionizable lipid screening efforts. Mice were obtained from Jackson Laboratories (JAX Stock: 000651) and allowed to acclimate for one week prior to manipulations. Animals were placed under a heat lamp for a few minutes before introducing them to a restraining chamber. The tail was wiped with alcohol pads (Fisher Scientific) and, for each LNP composition descrbed above, 100 μL of a lipid nanoparticle composition descrbed above containing 10 μg total mRNA (5 μg Fluc+5 μg EPO, 5 μg Fluc+5 μg Cre, or 5 μg EGFP) was injected intravenously using a 29 G insulin syringe (Covidien).
(§3) 4-6 hours post-dose, animals were injected with 200 μL of 15 mg/mL D-Luciferin (GoldBio), and placed in set nose cones inside the IVIS Lumina LT imager (PerkinElmer). LivingImage software was utilized for imaging. Whole body bio-luminescence was captured at auto-exposure after which animals are removed from the IVIS and placed into a CO2 chamber for euthanasia. Cardiac puncture was performed on each animal after placing it in dorsal recumbency, and blood collection was performed using a 25 G insulin syringe (BD). Once all blood samples were collected, tubes are spun at 2000 G for 10 minutes using a tabletop centrifuge and plasma was aliquoted into individual Eppendorf tubes (Fisher Scientific) and stored at −80° C. for subsequent EPO quantification. EPO levels in plasma were determined using EPO MSD kit (Meso Scale Diagnostics).

Balb/c mice [3] = assay: EPO levels in plasma by EPO MSD kit after IV injection of EPO mRNA LNP; assay type: in vivo; conditions: Example 5 LNP (DOPE 35:16:46.5:2.5), 5 μg FLUC + 5 μg EPO
Experimental: as §1, §2, §3

Compound	% EE [1] [%]	Bioluminescence (IV) Liver (Balb/c mice [2])	Bioluminescence (IV) Lung (Balb/c mice [2])	Bioluminescence (IV) Spleen (Balb/c mice [2])	Bioluminescence (IV) Whole Body (Balb/c mice [2])	Spleen: Liver Ratio (Balb/c mice [2])	hEPO (Balb/c mice [3])
CCCCCCCCCCCOC(=O)CCCCCN(CCCCCCCC(=O)OCCCC(CCCCC)CCCCC)CCN1CCN(CCN(CCCCCCCC(=O)OCCCC(CCCCC)CCCCC)CCCCCC(=O)OCCCCCCCCCCC)CC1 [Compound 2397, 4-pentylnonyl 8-[2-[4-[2-[[8-oxo-8-(4-pentylnonoxy)octyl]-(6-oxo-6-undecoxy-hexyl)amino]ethyl]piperazin-1-yl]ethyl-(6-oxo-6-undecoxy-hexyl)amino]octanoate]	94.0	1.4E+07	9.4E+03	6.5E+05	6.5E+07	0.052	1.5E+06
CCCCCCCCCCCOC(=O)CCCCCN(CCCCCCCC(=O)OC(CCCCCCCC)CCCCCCCC)CCNC(=O)NCCN(CCCCCCCC(=O)OC(CCCCCCCC)CCCCCCCC)CCCCCC(=O)OCCCCCCCCCCC [Compound 2246, 1-octylnonyl8-[2-[2-[[8-(1-octylnonoxy)-8-oxo-octyl]-(6-oxo-6-undecoxy-hexyl)amino]ethylcarbamoylamino]ethyl-(6-oxo-6-undecoxy-hexyl)amino]octanoate]	94.9	1.8E+07	3.7E+03	1.3E+05	1.3E+08	0.007	3.6E+06
CCCCCCCCCC(=O)OCCCCCCCN(CCCCCCCC(=O)OC(CCCCCCCC)CCCCCCCC)CCNC(=O)CCC(=O)NCCN(CCCCCCCOC(=O)CCCCCCCCC)CCCCCCCC(=O)OC(CCCCCCCC)CCCCCCCC [Compound 2272, 7-[2-[[4-[2-[7-decanoyloxyheptyl-[8-(1-octylnonoxy)-8-oxo-octyl]amino]ethylamino]-4-oxo-butanoyl]amino]ethyl-[8-(1-octylnonoxy)-8-oxo-octyl]amino]heptyl decanoate]	92.6	1.8E+07	1.5E+04	1.0E+06	1.3E+08	0.055	1.8E+06
CCCCCCCCCCCOC(=O)CCCCCN(CCCCCCCC(=O)OC(CCCCCCCC)CCCCCCCC)CCCNC(=O)CN(CC(=O)NCCCN(CCCCCCCC(=O)OC(CCCCCCCC)CCCCCCCC)CCCCCC(=O)OCCCCCCCCCCC)C(=O)CCN1CCCC1 [Compound 2353, 1-octylnonyl8-[3-[[2-[[2-[3-[[8-(1-octylnonoxy)-8-oxo-octyl]-(6-oxo-6-undecoxy-hexyl)amino]propylamino]-2-oxo-ethyl]-(3-pyrrolidin-1-ylpropanoyl)amino]acetyl]amino]propyl-(6-oxo-6-undecoxy-hexyl)amino]octanoate]	97.0	9.7E+03	3.2E+04	1.3E+05	7.8E+04	7.617	9.7E+03
CCCCCCCCCCC(CC)OC(=O)CCCCCN(CCCCCCCC(=O)OC(CCCCCCCC)CCCCCCCC)CCNC(=O)CCC(=O)NCCN(CCCCCCCC(=O)OC(CCCCCCCC)CCCCCCCC)CCCCCC(=O)OC(CC)CCCCCCCCCC (centres unmarked) [Compound 2356, 1-octylnonyl 8-[[6-(1-ethylundecoxy)-6-oxo-hexyl]-[2-[[4-[2-[[6-(1-ethylundecoxy)-6-oxo-hexyl]-[8-(1-octylnonoxy)-8-oxo-octyl]amino]ethylamino]-4-oxo-butanoyl]amino]ethyl]amino]octanoate]	95.0	1.3E+08	9.1E+03	1.3E+06	8.1E+08	0.010	1.3E+08
CCCCCCCCCCCOC(=O)CCCCCN(CCCCCCCC(=O)OC(CCCCCCCC)CCCCCCCC)CCN1CCN(CCN(CCCCCCCC(=O)OC(CCCCCCCC)CCCCCCCC)CCCCCC(=O)OCCCCCCCCCCC)CC1 [Compound 2248, 1-octylnonyl 8-[2-[4-[2-[[8-(1-octylnonoxy)-8-oxo-octyl]-(6-oxo-6-undecoxy-hexyl)amino]ethyl]piperazin-1-yl]ethyl-(6-oxo-6-undecoxy-hexyl)amino]octanoate]	95.0	5.6E+07	2.7E+04	4.5E+05	3.5E+08	0.008	
CCCCCCCCCCCOC(=O)CCCCCN(CCCCCCCC(=O)OC(CCCCCC)CCCCCCCC)CCNC(=O)CCC(=O)NCCN(CCCCCCCC(=O)OC(CCCCCC)CCCCCCCC)CCCCCC(=O)OCCCCCCCCCCC (centres unmarked) [Compound 2390, 1-hexylnonyl 8-[2-[[4-[2-[[8-(1-hexylnonoxy)-8-oxo-octyl]-(6-oxo-6-undecoxy-hexyl)amino]ethylamino]-4-oxo-butanoyl]amino]ethyl-(6-oxo-6-undecoxy-hexyl)amino]octanoate]	90.6	1.9E+07	1.2E+04	1.7E+06	1.9E+08	0.094	

Reference: patent US20250051263A1, “NOVEL IONIZABLE LIPIDS AND LIPID NANOPARTICLES AND METHODS OF USING THE SAME” (Sail Biomedicines, Inc., priority 2021, published 2025)
